Like-named read-outs stand apart in the source and are kept apart here.
Key:
Assay type in all cases: in vivo, male rats of the Wister line
[1] = system: gastric mucous membrane; test: 100% ethanol-induced gastric mucous membrane damage in rats (Experimental Example 1); conditions: for inhibition in vivo at 100 mg/kg: Rattus norvegicus, 1 h, vs control, read-out: Inhibition Ratio
Method: After 1 hour from the administration of 100% ethanol, the abdominal operation was carried out, and the length of the damaged region on the gastric mucous membrane was measured as the mucous membrane damage coefficient and compared with the value obtained in the control group. Note, a 0.5% solution of CMC not containing a compound of formula I was intraabdominally or orally administered in the control group.

[2] = system: gastric mucous membrane; test: 0.6N hydrochloric acid-induced gastric mucous membrane damage in rats (Experimental Example 2); conditions: for Inhibition Ratio: vs control
Method: A suspension of a compound of formula I in a […] of CMC (carboxymethyl cellulose) was intraabdominally administered in male rats of the Wister line (each group consisting of 10 rats) having a body weight of 180 to 200 g, which had been made to fast for 24 hours, and after 30 minutes, 1 ml of 0.6N hydrochloric acid was orally administered. After 1 hour from the administration of 0.6N hydrochloric acid, the abdominal operation was carried out, and the length of the damage on the gastric mucous membrane was measured as the mucous membrane damage coefficient and compared with the value obtained in the control group in the control group. Note, a 0.5% solution of CMC was intraabdominally administered. Data of the inhibition ratio calculated according to the following formula is shown in Tables 5 through 7: [formula] wherein A stands for the value obtained in the control group and B stands for the value obtained in the group in which the compound of formula I had been administered.

[3] = system: gastric mucous membrane; test: 150 mM hydrochloric acid/60% ethanol-induced gastric mucous membrane damage in rats (Experimental Example 3); conditions: 150 mM HCl/60% ethanol; for Inhibition Ratio: vs control
Method: A suspension of a compound of formula I in a 0.5 % solution of CMC (carboxymethyl cellulose) was intraabdominally or orally administered in male rats of the Wister line (each group consisting of 10 rats) having a body weight of 180 to 200 g, which had been made to fast for 24 hours, and after 30 minutes, 1 ml of a liquid mixture of 150 mM hydrochloric acid and 60% ethanol was orally administered. After 1 hour from the administration of the liquid mixture of 150 mM hydrochloric acid and 60% ethanol, the abdominal operation was carried out, and the length of the damage on the gastric mucous membrane was measured as the mucous membrane damage coefficient and compared with the value obtained in the control group. Note, a 0.5% solution of CMC not containing a compound of formula I was intra-abdominally or orally administered in the control group. Data of the inhibition ratio calculated according to the following formula is shown in Tables 8 through 10: [formula] wherein A stands for the value obtained in the control group and B stands for the value obtained in the group in which the compound of formula I had been administered.

[4] = Table 3, 100 mg/kg i.p., control 72.63
[5] = Table 6, 100 mg/kg i.p., control 106.3

COc1ccc(CCC(=O)c2ccc(OC)c(CCC(C)C)c2OCC(=O)O)cc1 [Specific Example 3, 1-(carboxymethoxy-4-methoxy-3-isopentylphenyl)-3-(4-methoxyphenyl)-1-propanone]
inhibition in vivo at 100 mg/kg ([1]; ip, Table 1, 100 mg/kg i.p.): 63.4%
inhibition in vivo at 100 mg/kg ([1]; po, Table 2, 100 mg/kg p.o.): 93.2%
Mucous Membrane Damage Coefficient ([1]; Table 1, 100 mg/kg i.p., control 102.6): 37.6 mm
Mucous Membrane Damage Coefficient ([1]; Table 2, 100 mg/kg p.o., control 87.7): 6.0 mm
Mucous Membrane Damage Coefficient ([2]; Table 5, 100 mg/kg i.p., control 65.8): 61.8 mm
Inhibition Ratio ([2]; Table 5, 100 mg/kg i.p.): 68.1%

COc1cc(CCC(=O)c2c(OC)cc(OC)c(CCC(C)C)c2OCC(=O)O)ccc1O [Specific Example 5, 1-(2-carboxymethoxy-4,6-dimethoxy-3-isopentylphenyl)-3-(4-hydroxy-3-methoxyphenyl)-1-propanone]
inhibition in vivo at 100 mg/kg ([1]; ip, Table 3, 100 mg/kg i.p.): 27.9%
Mucous Membrane Damage Coefficient [1, 4]: 52.38 mm

COc1ccc(CCC(=O)c2c(OC)cc(OC)c(CCC(C)C)c2OCC(=O)O)cc1O [Specific Example 6, 1-(2-carboxymethoxy-4,6-dimethoxy-3-isopentylphenyl)-3-(3-hydroxy-4-methoxyphenyl)-1-propanone]
inhibition in vivo at 100 mg/kg ([1]; ip, Table 3, 100 mg/kg i.p.): 32.4%
Mucous Membrane Damage Coefficient [1, 4]: 49.13 mm

COc1cc(CCC(=O)c2c(OC)cc(OC)c(CCC(C)C)c2OCC(=O)O)cc(OC)c1O [Specific Example 7, 1-(2-carboxymethoxy-4,6-dimethoxy-3-isopentylphenyl)-3-(4-hydroxy-3,5-dimethoxyphenyl)-1-propanone]
inhibition in vivo at 100 mg/kg ([1]; ip, Table 3, 100 mg/kg i.p.): 32.5%
Mucous Membrane Damage Coefficient [1, 4]: 49.00 mm

COc1ccc(/C=C/C(=O)c2ccc(OC)c(CC=C(C)C)c2OCC(=O)O)cc1 [Specific Example 8, 2'-carboxymethoxy-4,4'-dimethoxy-3'-(3-methyl-2-butenyl)chalcone]
inhibition in vivo at 100 mg/kg ([1]; ip, Table 3, 100 mg/kg i.p.): 78.5%
Mucous Membrane Damage Coefficient [1, 4]: 15.63 mm
Mucous Membrane Damage Coefficient [2, 5]: 62.4 mm
Inhibition Ratio ([2]; Table 6, 100 mg/kg i.p.): 41.3%

COc1ccc(/C=C/C(=O)c2c(OC)cc(OC)c(CCC(C)C)c2OCC(=O)O)cc1 [Specific Example 9, 2'-carboxymethoxy-4,4',6'-trimethoxy-3'-isopentylchalcone]
inhibition in vivo at 100 mg/kg ([1]; ip, Table 3, 100 mg/kg i.p.): 93.1%
Mucous Membrane Damage Coefficient [1, 4]: 5.00 mm
Mucous Membrane Damage Coefficient [2, 5]: 39.6 mm
Inhibition Ratio ([2]; Table 6, 100 mg/kg i.p.): 62.3%

COc1ccc(CCC(=O)c2c(OC)cc(OC)cc2OCC(=O)O)cc1 [Specific Example 11, 1-(2-carboxymethoxy-4,6-dimethoxyphenyl)-3-(4-methoxyphenyl)-1-propanone]
inhibition in vivo at 100 mg/kg ([1]; ip, Table 3, 100 mg/kg i.p.): 92.8%
Mucous Membrane Damage Coefficient [1, 4]: 5.25 mm
Mucous Membrane Damage Coefficient [2, 5]: 36.6 mm
Inhibition Ratio ([2]; Table 6, 100 mg/kg i.p.): 65.6%

COc1ccc(CCC(=O)c2c(OC)cc(OC)c(CC=C(C)C)c2OCC(=O)O)cc1 [Specific Example 12, 1-[2-carboxymethoxy-4,6-dimethoxy-3-(3-methyl-2-butenyl)phenyl]-3-(4-methoxyphenyl) -propanone]
inhibition in vivo at 100 mg/kg ([1]; ip, Table 3, 100 mg/kg i.p.): 43.2%
Mucous Membrane Damage Coefficient [1, 4]: 41.25 mm
Mucous Membrane Damage Coefficient [2, 5]: 76.6 mm
Inhibition Ratio ([2]; Table 6, 100 mg/kg i.p.): 27.8%

O=C(/C=C/c1ccc(O)cc1)c1ccc(O)cc1O [Specific Example 15, 2',4,4'-trihydroxychalcone]
Mucous Membrane Damage Coefficient ([3]; Table 9, 30 mg/kg p.o., control 84.3): 30.0 mm
Inhibition Ratio ([3]; Table 9, 30 mg/kg p.o.): 64.4%
Mucous Membrane Damage Coefficient ([3]; Table 10, 30 mg/kg i.p., control 110.7): 49.5 mm
Inhibition Ratio ([3]; Table 10, 30 mg/kg i.p.): 55.3%

COc1ccc(/C=C/C(=O)c2ccc(OC)c(CC=C(C)C)c2O)cc1 [Specific Example 16, 2'-hydroxy-4,4'-dimethoxy-3'-(3-methyl-2-butenyl)chalcone]
inhibition in vivo at 100 mg/kg ([1]; ip, Table 4, 100 mg/kg i.p.): 36.4%
Mucous Membrane Damage Coefficient ([1]; Table 4, 100 mg/kg i.p., control 72.3): 46.0 mm

Reference: US5106871A, “Anti-ulcer agent comprising chalcone derivative as effective ingredient and novel chalcone derivative” (Tsumura & Co., priority 1986, dated 1992)
